In ChEMBL document CHEMBL1152560, “Substituted 2-arylbenzothiazoles as kinase inhibitors: hit-to-lead optimization” (Bioorg Med Chem, 2009) one finds residual activity data, which are given here for three molecules.

Assay [1] has as its target Focal adhesion kinase 1 (Homo sapiens) (UniProt Q05397). Put plainly: Residual activity of FAK at 1 uM by microplate scintillation counting.
In assay [2] the target is Mitogen-activated protein kinase kinase kinase 8 (Homo sapiens) (UniProt P41279). Put plainly: Residual activity of COT at 0.1 uM by microplate scintillation counting.
Mitogen-activated protein kinase kinase kinase 8 (Homo sapiens), sequence (P41279 whole entry): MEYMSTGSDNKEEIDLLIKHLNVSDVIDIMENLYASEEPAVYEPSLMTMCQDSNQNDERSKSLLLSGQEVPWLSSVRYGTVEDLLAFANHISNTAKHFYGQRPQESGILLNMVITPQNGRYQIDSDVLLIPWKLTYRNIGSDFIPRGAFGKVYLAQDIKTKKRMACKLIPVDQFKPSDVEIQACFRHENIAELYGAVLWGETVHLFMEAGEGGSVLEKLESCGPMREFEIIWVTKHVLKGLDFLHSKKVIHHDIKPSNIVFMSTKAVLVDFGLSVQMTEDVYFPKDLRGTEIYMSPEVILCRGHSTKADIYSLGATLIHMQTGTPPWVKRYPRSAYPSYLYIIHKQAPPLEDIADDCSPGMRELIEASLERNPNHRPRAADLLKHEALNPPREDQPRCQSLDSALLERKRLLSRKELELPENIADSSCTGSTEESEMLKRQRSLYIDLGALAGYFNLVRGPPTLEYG
The target in assay [3] is T1, Protein kinase C iota type (Homo sapiens) (UniProt P41743).
T1 sequence (whole entry): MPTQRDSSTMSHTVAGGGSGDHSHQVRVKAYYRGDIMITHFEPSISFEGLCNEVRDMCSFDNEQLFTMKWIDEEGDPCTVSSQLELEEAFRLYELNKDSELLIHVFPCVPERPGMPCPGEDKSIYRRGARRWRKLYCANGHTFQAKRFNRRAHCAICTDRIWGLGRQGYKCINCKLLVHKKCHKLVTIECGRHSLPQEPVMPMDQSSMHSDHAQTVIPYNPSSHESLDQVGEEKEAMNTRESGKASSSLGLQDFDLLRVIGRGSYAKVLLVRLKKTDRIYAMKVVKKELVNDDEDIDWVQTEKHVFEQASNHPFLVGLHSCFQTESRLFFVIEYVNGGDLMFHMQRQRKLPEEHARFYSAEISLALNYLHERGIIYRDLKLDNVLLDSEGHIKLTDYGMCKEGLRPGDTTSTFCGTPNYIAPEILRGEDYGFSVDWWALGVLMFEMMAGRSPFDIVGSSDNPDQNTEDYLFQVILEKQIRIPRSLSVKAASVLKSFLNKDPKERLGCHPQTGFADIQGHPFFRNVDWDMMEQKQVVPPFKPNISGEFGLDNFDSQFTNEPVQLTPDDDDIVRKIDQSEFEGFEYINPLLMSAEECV
Briefly: Residual activity of PKCiota at 1 uM by microplate scintillation counting.

Assay [4] relates to T2, Receptor-type tyrosine-protein kinase FLT3 (Homo sapiens), P36888 [D835Y].
T2 sequence (whole entry): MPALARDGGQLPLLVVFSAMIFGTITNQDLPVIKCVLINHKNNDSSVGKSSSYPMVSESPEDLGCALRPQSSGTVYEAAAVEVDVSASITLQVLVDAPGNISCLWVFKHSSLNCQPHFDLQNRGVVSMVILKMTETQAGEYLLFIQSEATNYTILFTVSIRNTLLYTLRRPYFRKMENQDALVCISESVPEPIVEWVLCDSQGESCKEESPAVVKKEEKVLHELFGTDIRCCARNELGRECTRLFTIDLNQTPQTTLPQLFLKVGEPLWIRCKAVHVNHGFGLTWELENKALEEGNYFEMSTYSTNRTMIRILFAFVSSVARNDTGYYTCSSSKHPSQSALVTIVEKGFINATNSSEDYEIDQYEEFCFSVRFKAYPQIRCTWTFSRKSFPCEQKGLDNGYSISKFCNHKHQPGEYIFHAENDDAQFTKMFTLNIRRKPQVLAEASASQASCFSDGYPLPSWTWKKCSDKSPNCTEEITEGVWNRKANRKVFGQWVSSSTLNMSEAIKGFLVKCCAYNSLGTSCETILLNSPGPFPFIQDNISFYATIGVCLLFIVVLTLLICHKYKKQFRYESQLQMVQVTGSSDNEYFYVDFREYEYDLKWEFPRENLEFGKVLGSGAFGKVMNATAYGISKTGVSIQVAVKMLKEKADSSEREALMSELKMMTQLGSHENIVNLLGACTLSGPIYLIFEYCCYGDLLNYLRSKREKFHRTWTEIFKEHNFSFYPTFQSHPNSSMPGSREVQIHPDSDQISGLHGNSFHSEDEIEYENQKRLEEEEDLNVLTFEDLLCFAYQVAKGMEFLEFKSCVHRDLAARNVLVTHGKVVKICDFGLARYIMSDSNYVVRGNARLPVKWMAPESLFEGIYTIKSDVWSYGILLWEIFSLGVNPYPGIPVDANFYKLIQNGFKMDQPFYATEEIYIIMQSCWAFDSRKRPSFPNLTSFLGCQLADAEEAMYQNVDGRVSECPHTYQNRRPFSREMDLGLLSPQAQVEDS
Put plainly: Residual activity of FLT3 D835Y mutant at 0.1 uM by microplate scintillation counting.

Assay [5] concerns the target Serine/threonine-protein kinase 16 (Homo sapiens) (UniProt O75716). Put plainly: Residual activity of TSF1 at 1 uM by microplate scintillation counting.
The target in assay [6] is Activin receptor type-1-like (Homo sapiens) (UniProt P37023). Put plainly: Residual activity of ACV-RL1 at 1 uM by microplate scintillation counting.
Activin receptor type-1-like (Homo sapiens), sequence (P37023 whole entry): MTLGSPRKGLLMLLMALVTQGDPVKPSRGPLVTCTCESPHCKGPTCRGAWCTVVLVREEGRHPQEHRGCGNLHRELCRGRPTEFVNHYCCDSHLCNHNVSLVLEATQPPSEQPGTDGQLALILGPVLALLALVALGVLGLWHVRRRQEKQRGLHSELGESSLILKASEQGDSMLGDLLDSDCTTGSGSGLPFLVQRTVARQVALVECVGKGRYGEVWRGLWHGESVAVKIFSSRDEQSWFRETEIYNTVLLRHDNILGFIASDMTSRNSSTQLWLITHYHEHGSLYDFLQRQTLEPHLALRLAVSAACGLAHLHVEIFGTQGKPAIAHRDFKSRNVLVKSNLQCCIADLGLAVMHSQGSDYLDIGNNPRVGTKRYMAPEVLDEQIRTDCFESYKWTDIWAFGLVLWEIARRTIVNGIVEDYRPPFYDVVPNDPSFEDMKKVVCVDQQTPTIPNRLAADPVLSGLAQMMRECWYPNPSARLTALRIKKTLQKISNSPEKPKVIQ
For assay [7], the target named is CDK4/Cyclin D3 (Homo sapiens) (UniProt P11802+P30281). Briefly: Residual activity of CDK4/Cyclin D3 at 10 uM by microplate scintillation counting. The assay is classed as protein-complex assay.
For assay [8], the target named is T3, Serine/threonine-protein kinase PLK4 (Homo sapiens) (UniProt O00444).
T3 sequence (whole entry): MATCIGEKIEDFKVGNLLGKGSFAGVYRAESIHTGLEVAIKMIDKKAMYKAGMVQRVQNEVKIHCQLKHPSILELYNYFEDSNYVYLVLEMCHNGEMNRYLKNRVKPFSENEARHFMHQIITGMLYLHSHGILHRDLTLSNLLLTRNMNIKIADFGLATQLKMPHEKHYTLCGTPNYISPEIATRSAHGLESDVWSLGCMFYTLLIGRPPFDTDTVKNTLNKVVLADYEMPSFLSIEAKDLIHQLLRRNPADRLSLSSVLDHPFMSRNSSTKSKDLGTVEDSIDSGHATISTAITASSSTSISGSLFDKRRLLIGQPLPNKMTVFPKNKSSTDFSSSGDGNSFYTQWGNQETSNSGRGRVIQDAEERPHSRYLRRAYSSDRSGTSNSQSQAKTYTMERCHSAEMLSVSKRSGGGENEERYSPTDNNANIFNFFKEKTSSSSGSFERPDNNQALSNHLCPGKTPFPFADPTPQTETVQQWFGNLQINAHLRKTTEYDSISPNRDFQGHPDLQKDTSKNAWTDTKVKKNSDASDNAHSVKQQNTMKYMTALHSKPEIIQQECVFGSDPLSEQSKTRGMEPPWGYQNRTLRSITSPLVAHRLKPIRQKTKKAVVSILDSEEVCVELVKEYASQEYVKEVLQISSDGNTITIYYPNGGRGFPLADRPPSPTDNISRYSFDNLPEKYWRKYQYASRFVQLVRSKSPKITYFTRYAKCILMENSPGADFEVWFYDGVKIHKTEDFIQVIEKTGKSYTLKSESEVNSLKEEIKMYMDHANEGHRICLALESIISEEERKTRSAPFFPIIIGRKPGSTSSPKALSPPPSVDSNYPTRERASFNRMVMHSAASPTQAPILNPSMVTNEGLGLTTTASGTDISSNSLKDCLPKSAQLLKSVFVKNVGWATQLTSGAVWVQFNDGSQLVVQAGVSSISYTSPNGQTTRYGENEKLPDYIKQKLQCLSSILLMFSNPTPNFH
Briefly: Residual activity of SAK at 10 uM by microplate scintillation counting.

The target of assay [9] is Serine/threonine-protein kinase N2 (Homo sapiens) (UniProt Q16513). Put plainly: Residual activity of PRK2 at 0.1 uM by microplate scintillation counting.
Serine/threonine-protein kinase N2 (Homo sapiens), sequence (Q16513 whole entry, looked up): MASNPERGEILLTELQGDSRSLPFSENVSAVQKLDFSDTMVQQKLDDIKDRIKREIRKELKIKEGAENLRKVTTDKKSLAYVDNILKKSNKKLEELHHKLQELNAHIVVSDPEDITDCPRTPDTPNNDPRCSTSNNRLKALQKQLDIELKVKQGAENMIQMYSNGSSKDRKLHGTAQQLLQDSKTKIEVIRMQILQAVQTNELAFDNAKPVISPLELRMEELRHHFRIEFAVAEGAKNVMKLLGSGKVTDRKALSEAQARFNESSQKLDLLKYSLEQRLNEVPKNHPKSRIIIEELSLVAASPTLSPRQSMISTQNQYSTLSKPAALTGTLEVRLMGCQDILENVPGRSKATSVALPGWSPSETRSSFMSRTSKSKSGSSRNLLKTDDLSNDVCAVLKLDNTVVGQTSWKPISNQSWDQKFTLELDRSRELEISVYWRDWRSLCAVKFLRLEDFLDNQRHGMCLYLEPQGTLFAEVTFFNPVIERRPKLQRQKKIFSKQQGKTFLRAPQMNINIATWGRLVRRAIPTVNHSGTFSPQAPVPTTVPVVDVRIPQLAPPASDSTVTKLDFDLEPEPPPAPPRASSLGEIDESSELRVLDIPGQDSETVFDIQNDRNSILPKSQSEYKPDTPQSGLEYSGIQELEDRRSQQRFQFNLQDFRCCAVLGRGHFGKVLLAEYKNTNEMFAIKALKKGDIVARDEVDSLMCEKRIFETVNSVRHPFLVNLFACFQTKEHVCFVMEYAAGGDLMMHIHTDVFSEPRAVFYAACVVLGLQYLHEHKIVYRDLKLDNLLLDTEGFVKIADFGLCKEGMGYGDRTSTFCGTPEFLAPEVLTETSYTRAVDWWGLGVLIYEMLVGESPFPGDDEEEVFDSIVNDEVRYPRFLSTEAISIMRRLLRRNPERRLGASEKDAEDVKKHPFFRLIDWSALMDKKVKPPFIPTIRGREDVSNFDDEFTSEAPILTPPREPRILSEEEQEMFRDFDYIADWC

Molecules are shown by their SMILES.

Focal adhesion kinase 1 (Homo sapiens), sequence (Q05397 2-1052 limits assumed): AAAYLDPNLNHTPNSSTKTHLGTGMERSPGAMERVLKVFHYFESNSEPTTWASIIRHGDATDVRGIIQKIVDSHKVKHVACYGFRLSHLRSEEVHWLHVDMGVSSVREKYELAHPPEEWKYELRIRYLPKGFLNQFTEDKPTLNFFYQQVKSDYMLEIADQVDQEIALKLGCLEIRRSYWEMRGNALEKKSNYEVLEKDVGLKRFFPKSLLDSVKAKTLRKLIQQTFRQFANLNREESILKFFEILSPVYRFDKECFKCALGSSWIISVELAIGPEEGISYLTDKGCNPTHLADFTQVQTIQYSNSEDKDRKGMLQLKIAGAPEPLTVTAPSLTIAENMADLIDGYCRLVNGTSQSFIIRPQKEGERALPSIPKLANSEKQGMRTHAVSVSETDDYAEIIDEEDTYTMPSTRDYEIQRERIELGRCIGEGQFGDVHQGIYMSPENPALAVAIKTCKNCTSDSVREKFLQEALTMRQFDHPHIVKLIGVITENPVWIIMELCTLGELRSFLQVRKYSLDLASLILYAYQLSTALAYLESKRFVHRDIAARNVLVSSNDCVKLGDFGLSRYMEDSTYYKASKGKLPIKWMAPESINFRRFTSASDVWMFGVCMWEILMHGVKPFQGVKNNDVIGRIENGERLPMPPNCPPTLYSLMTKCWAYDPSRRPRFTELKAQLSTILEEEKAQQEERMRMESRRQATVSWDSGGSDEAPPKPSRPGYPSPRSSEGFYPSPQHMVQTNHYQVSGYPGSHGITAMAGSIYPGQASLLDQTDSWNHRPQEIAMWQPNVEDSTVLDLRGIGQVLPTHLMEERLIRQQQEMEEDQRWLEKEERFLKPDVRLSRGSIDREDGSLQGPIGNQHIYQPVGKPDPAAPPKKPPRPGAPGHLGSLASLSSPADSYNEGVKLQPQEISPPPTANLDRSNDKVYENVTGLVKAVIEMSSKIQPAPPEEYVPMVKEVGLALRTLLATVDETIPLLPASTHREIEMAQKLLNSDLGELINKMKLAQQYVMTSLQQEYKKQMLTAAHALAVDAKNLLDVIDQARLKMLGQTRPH
Serine/threonine-protein kinase 16 (Homo sapiens), sequence (O75716 whole entry): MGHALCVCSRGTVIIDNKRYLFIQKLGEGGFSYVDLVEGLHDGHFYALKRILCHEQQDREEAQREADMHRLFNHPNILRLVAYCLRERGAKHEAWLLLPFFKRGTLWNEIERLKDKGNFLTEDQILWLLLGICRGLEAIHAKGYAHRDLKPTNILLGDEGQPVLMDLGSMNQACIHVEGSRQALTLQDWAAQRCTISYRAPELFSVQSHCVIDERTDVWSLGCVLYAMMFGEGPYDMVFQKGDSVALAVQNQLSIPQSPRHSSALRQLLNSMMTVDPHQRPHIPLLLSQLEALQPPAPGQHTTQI

Take `COc1cc2c(Oc3ccc(-c4nc5ccccc5s4)cc3)ncnc2cc1OCCCN1CCCC1`: the residual activity stood at 98% in assay [1]; 73% in assay [2]; 103% in assay [3]; 83% in [4]; 87% in assay [5]; 92% in assay [6]. For the same molecule, the residual activity in [7] is 98%; in assay [8] it was 1%; in [9], 99%.
Take `COc1cc2c(Oc3ccc(-c4nc5ccccc5s4)cc3F)ncnc2cc1OCCCN1CCN(C)CC1`: the residual activity is 104% in assay [1]; 78% in assay [2]; 102% in assay [3]; 79% in [4]; 96% in [5]; 92% in [6]. In addition, the residual activity in [7] worked out at 93%; in assay [8] it was 1%; in [9], 72%.
With `COc1cc2c(Oc3ccc(-c4nc5ccccc5s4)cc3)ncnc2cc1OCCCN1CCN(C)CC1`, the residual activity in [1] turned out to be 93%; in assay [2], 101%; in assay [3] it was 116%; in assay [4] it was 86%; in assay [5], 90%; in [6], 78%. Also, the residual activity in [7] turned out to be 105%; in assay [8] it was 1%; in assay [9] it was 65%.
